Measured values from patent publication US9156829B2, “Cycloalkyl and heterocycloalkyl compounds as orexin receptor antagonists” (Takeda Pharmaceutical Company Limited, priority 2014, dated 2015).

What was measured:
human orexin receptor 1 = human orexin receptor 1 (Homo sapiens (Human), UniProt O43613); test: Orexin antagonist activity, intracellular calcium FLIPR assay, RBL-2H3 cells expressing human orexin receptor 1; assay type: cell-based; settings: RBL-2H3 cells stably expressing human orexin receptor 1; orexin-A at approx. 80% maximal response; compound added 15 minutes before; read-out: Human Orexin1R IC50
human orexin receptor 2 = human orexin receptor 2 (Homo sapiens (Human), UniProt O43614); test: Orexin antagonist activity, intracellular calcium FLIPR assay, RBL-2H3 cells expressing human orexin receptor 2; assay type: cell-based; settings: RBL-2H3 cells stably expressing human orexin receptor 2; orexin-A at approx. 80% maximal response; compound added 15 minutes before; read-out: Human Orexin2R IC50
human orexin receptor 2, sequence (O43614 whole entry): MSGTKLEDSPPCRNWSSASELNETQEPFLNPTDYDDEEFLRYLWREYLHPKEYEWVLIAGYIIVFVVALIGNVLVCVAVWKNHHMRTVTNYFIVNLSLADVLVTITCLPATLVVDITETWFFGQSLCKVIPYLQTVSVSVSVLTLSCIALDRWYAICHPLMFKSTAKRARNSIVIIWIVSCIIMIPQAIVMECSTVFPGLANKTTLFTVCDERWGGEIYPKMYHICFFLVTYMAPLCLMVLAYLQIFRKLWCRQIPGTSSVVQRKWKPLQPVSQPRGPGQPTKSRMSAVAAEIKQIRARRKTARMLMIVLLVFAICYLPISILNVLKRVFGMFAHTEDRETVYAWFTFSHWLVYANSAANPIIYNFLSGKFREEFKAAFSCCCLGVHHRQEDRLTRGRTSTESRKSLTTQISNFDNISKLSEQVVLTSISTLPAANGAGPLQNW

human orexin receptor 1, sequence (O43613 whole entry): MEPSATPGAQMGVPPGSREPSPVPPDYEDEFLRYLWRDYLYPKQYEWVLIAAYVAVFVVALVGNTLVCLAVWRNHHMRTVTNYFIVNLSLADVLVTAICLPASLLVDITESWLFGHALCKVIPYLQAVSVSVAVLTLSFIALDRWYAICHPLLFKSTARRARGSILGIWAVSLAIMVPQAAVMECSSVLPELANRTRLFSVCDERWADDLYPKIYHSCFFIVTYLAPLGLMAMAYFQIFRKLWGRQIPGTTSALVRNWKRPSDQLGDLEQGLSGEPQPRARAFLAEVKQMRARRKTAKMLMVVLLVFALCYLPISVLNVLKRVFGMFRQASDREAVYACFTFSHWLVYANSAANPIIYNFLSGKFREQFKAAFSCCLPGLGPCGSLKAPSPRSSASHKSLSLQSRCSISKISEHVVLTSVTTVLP

Row | IC50 (human orexin receptor 1) | IC50 (human orexin receptor 2) | SMILES
1 | 289 nM | > 10000 nM | O=C(N[C@H]1CCC[C@@H]1Nc1cnc(C(F)(F)F)cn1)c1ncccc1-n1cccn1 [Example 43, 3-(1H-Pyrazol-1-yl)-N-[(1S,2S)-2-{[5-(trifluoromethyl)pyrazin-2-yl]amino}cyclopentyl]pyridine-2-carboxamide]
2 | 199 nM | > 10000 nM | Cc1nnc(-c2ccccc2C(=O)N[C@H]2CCC[C@@H]2Nc2cnc(C(F)(F)F)cn2)o1 [Example 44, 2-(5-Methyl-1,3,4-oxadiazol-2-yl)-N-[(1S,2S)-2-{[5-(trifluoromethyl)pyrazin-2-yl]amino}cyclopentyl]benzamide]
3 | 241 nM | > 10000 nM | O=C(N[C@H]1CCC[C@@H]1Nc1cnc(C(F)(F)F)cn1)c1cc(C(F)(F)F)ccc1-n1nccn1 [Example 45, 2-(2H-1,2,3-Triazol-2-yl)-5-(trifluoromethyl)-N-[(1S,2S)-2-{[5-(trifluoromethyl)pyrazin-2-yl]amino}cyclopentyl]benzamide]
4 | 172 nM | > 10000 nM | O=C(N[C@H]1CCC[C@@H]1Nc1cnc(C(F)(F)F)cn1)c1c(F)cccc1-n1cccn1 [Example 46, 2-Fluoro-6-(1H-pyrazol-1-yl)-N-[(1S,2S)-2-{[5-(trifluoromethyl)pyrazin-2-yl]amino}cyclopentyl]benzamide]
5 | 445 nM | > 10000 nM | O=C(N[C@H]1CCC[C@@H]1Nc1cnc(C(F)(F)F)cn1)c1cc(F)ccc1-n1cccn1 [Example 47, 5-Fluoro-2-(1H-pyrazol-1-yl)-N-[(1S,2S)-2-{[5-(trifluoromethyl)pyrazin-2-yl]amino}cyclopentyl]benzamide]
6 | 88 nM | > 10000 nM | Cc1ccc(-n2cccn2)c(C(=O)N[C@H]2CCC[C@@H]2Nc2cnc(C(F)(F)F)cn2)c1 [Example 48, 5-Methyl-2-(1H-pyrazol-1-yl)-N-[(1S,2S)-2-{[5-(trifluoromethyl)pyrazin-2-yl]amino}cyclopentyl]benzamide]
7 | 80 nM | > 10000 nM | COc1cccc(-n2cccn2)c1C(=O)N[C@H]1CCC[C@@H]1Nc1cnc(C(F)(F)F)cn1 [Example 50, 2-Methoxy-6-(1H-pyrazol-1-yl)-N-[(1S,2S)-2-{[5-(trifluoromethyl)pyrazin-2-yl]amino}cyclopentyl]benzamide]
8 | 301 nM | > 10000 nM | O=C(N[C@H]1CCC[C@@H]1Nc1cnc(C(F)(F)F)cn1)c1ncccc1N1CCCCC1 [Example 51, 3-(Piperidin-1-yl)-N-[(1S,2S)-2-{[5-(trifluoromethyl)pyrazin-2-yl]amino}cyclopentyl]pyridine-2-carboxamide]

More lines, now with the values behind:

Row | SMILES | IC50 (human orexin receptor 1) | IC50 (human orexin receptor 2)
9 | O=C(N[C@H]1CCC[C@@H]1Nc1cnc(C(F)(F)F)cn1)c1ncccc1Br [Example 28, 3-Bromo-N-[(1S,2S)-2-{[5-(trifluoromethyl)pyrazin-2-yl]amino}cyclopentyl]pyridine-2-carboxamide] | 776 nM | > 10000 nM
10 | CCOc1ccc(C)cc1C(=O)N[C@H]1CCC[C@@H]1Nc1cnc(C(F)(F)F)cn1 [Example 29, 2-Ethoxy-5-methyl-N-[(1S,2S)-2-{[5-(trifluoromethyl)pyrazin-2-yl]amino}cyclopentyl]benzamide] | 279 nM | > 10000 nM
11 | CCOc1ccc(C)nc1C(=O)N[C@H]1CCC[C@@H]1Nc1cnc(C(F)(F)F)cn1 [Example 30, 3-Ethoxy-6-methyl-N-[(1S,2S)-2-{[5-(trifluoromethyl)pyrazin-2-yl]amino}cyclopentyl]pyridine-2-carboxamide] | 370 nM | > 10000 nM
12 | O=C(N[C@H]1CCC[C@@H]1Nc1cnc(C(F)(F)F)cn1)c1ccccc1-n1cccn1 [Example 31, 2-(1H-Pyrazol-1-yl)-N-[(1S,2S)-2-{[5-(trifluoromethyl)pyrazin-2-yl]amino}cyclopentyl]benzamide] | 122 nM | > 10000 nM
13 | O=C(N[C@H]1CCC[C@@H]1Nc1cnc(C(F)(F)F)cn1)c1c(F)cccc1-n1nccn1 [Example 32, 2-Fluoro-6-(2H-1,2,3-triazol-2-yl)-N-[(1S,2S)-2-{[5-(trifluoromethyl)pyrazin-2-yl]amino}cyclopentyl]benzamide] | 32 nM | > 10000 nM
14 | O=C(N[C@H]1CCC[C@@H]1Nc1cnc(C(F)(F)F)cn1)c1c(F)cccc1F [Example 33, 2,6-Difluoro-N-[(1S,2S)-2-{[5-(trifluoromethyl)pyrazin-2-yl]amino}cyclopentyl]benzamide] | 890 nM | > 10000 nM
15 | COc1cccc(OC)c1C(=O)N[C@H]1CCC[C@@H]1Nc1cnc(C(F)(F)F)cn1 [Example 34, 2,6-Dimethoxy-N-[(1S,2S)-2-{[5-(trifluoromethyl)pyrazin-2-yl]amino}cyclopentyl]benzamide] | 523 nM | > 10000 nM
16 | O=C(N[C@H]1CCC[C@@H]1Nc1cnc(C(F)(F)F)cn1)c1ccccc1-n1ccnn1 [Example 35, 2-(1H-1,2,3-Triazol-1-yl)-N-[(1S,2S)-2-{[5-(trifluoromethyl)pyrazin-2-yl]amino}cyclopentyl]benzamide] | 693 nM | > 10000 nM
17 | O=C(N[C@H]1CCC[C@@H]1Nc1cnc(C(F)(F)F)cn1)c1cc(F)ccc1-n1nccn1 [Example 36, 5-Fluoro-2-(2H-1,2,3-triazol-2-yl)-N-[(1S,2S)-2-{[5-(trifluoromethyl)pyrazin-2-yl]amino}cyclopentyl]benzamide] | 207 nM | > 10000 nM
18 | COc1ccc(C)cc1C(=O)N[C@H]1CCC[C@@H]1Nc1cnc(C(F)(F)F)cn1 [Example 37, 2-Methoxy-5-methyl-N-[(1S,2S)-2-{[5-(trifluoromethyl)pyrazin-2-yl]amino}cyclopentyl]benzamide] | 340 nM | > 10000 nM
19 | O=C(N[C@H]1CCC[C@@H]1Nc1cnc(C(F)(F)F)cn1)c1ccccc1-c1ncccn1 [Example 38, 2-(Pyrimidin-2-yl)-N-[(1S,2S)-2-{[5-(trifluoromethyl)pyrazin-2-yl]amino}cyclopentyl]benzamide] | 49 nM | > 10000 nM
20 | O=C(N[C@H]1CCC[C@@H]1Nc1cnc(C(F)(F)F)cn1)c1cc(F)ccc1-c1ncccn1 [Example 39, 5-Fluoro-2-(pyrimidin-2-yl)-N-[(1S,2S)-2-{[5-(trifluoromethyl)pyrazin-2-yl]amino}cyclopentyl]benzamide] | 81 nM | > 10000 nM
21 | O=C(N[C@H]1CCC[C@@H]1Nc1cnc(C(F)(F)F)cn1)c1c(Cl)cccc1-n1nccn1 [Example 40, 2-Chloro-6-(2H-1,2,3-triazol-2-yl)-N-[(1S,2S)-2-{[5-(trifluoromethyl)pyrazin-2-yl]amino}cyclopentyl]benzamide] | 35 nM | > 10000 nM
22 | O=C(N[C@H]1CCC[C@@H]1Nc1cnc(C(F)(F)F)cn1)c1cc(F)ccc1-n1ccnn1 [Example 41, 5-Fluoro-2-(1H-1,2,3-triazol-1-yl)-N-[(1S,2S)-2-{[5-(trifluoromethyl)pyrazin-2-yl]amino}cyclopentyl]benzamide] | 644 nM | > 10000 nM
23 | Cc1ccc(-n2ccnn2)c(C(=O)N[C@H]2CCC[C@@H]2Nc2cnc(C(F)(F)F)cn2)c1 [Example 42, 5-Methyl-2-(1H-1,2,3-triazol-1-yl)-N-[(1S,2S)-2-{[5-(trifluoromethyl)pyrazin-2-yl]amino}cyclopentyl]benzamide] | 261 nM | > 10000 nM
